The text below walks through data of US20210253598A1, “ARYL ANNULATED MACROCYCLIC INDOLE DERIVATIVES” (priority 2017, published 2021).

Where a name gives a salt, the structure may show the parent alone. Read-outs that look alike come from different tables or passages of the source.

Series [1] relates to SUDHL10. Nature of the series: Induction of cytotoxicity in SUDHL10 cells, CellTiter-Glo (Assay 6). Format: cell-based. The following applies: SUDHL10, 5 hours incubation, median, read-out: Cytotox SUDHL10 [M] (median). The method, boiled down: (§1)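 Luminescent ATP readout (CellTiter-Glo, 15 min at room temperature) quantifies cytotoxicity after a 5 h compound exposure at 37 °C.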
A general note: ATP-based viability assays read luminescence as a measure of living cells.

Series [2] relates to SUDHL5. Nature of the series: Induction of cytotoxicity in SUDHL5 cells, CellTiter-Glo (Assay 6). Conditions: SUDHL5, 5 hours incubation, median, read-out: Cytotox SUDHL5 [M] (median). Format: cell-based. An outline of the steps:
as §1

In series [3] the test system is SUDHL5. Kind of series: Anti-proliferative effect in SUDHL5 cells, CellTiter-Glo (Assay 7). Format: cell-based. An outline of the steps:
(§2)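 Overnight seeding at 37 °C, then 72 h treatment with compound; day 0 plate read at start. Luminescent ATP-based viability readout (CellTiter-Glo). IC50 normalised between day 0 and DMSO values.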

Series [4] has as its system SUDHL10. Kind of series: Induction of caspase-3/7 activity in SUDHL10 cells (Assay 4). The format is cell-based. An outline of the steps:
(§3)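 Luminescent Caspase-Glo 3/7 read-out in SUDHL5 and SUDHL10 cells after 3 h compound exposure at 37 °C, followed by 1 h reagent incubation.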

Series [5] concerns SUDHL5. Kind of series: Induction of caspase-3/7 activity in SUDHL5 cells (Assay 4). The format is cell-based. An outline of the steps: as §3
Series [6] has as its system AMO-1. Nature of the series: Anti-proliferative effect in AMO-1 cells, CellTiter-Glo (Assay 7). Format: cell-based. An outline of the steps: as §2
Series [7] concerns the target BCL-2 (Homo sapiens, UniProt P10415). Nature of the series: Protein-protein interaction assay BCL-2/Bad BH3 peptide, TR-FRET (BCL-2 assay, Assay 3). Format: binding. The following applies: His-BCL-2 / Bad BH3 peptide, median.
Setting [8] is: SUDHL5, 72 hours incubation, CellTiter-Glo, median, read-out: Antiproli SUDHL5 [M] (median).
Where [9] appears, read: SUDHL10, 3 hours treatment, Caspase-Glo 3/7, median, read-out: Caspase SUDHL10 [M] (median).
Where [10] appears, read: SUDHL5, 3 hours treatment, Caspase-Glo 3/7, median, read-out: Caspase SUDHL5 [M] (median).

Chain of BCL-2 (P10415 1-211): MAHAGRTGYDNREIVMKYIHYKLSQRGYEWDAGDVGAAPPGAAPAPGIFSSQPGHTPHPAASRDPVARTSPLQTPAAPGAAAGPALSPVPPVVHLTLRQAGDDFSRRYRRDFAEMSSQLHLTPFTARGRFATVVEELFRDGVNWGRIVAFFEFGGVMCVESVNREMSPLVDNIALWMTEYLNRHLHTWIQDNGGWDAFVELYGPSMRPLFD

Take `Cc1c2c(nn1C)COCc1ccccc1Cn1c(C(=O)O)c(CCCOc3cccc4cc(F)ccc34)c3ccc(Cl)c-2c31` (racemic) [Example 48, (rac)-3-Chloro-17-{3-[(6-fluoronaphthalen-1-yl)oxy]propyl}-4,5-dimethyl-5,7,9,14-tetrahydroindolo[7,1-fg]pyrazolo[3,4-d][2,8]benzoxazacycloundecine-16-carboxylic Acid]: the IC50 in series [1] (Homo sapiens, SU-DHL10, 5 h) was determined as 2.6e-06 M; in series [2] (Homo sapiens, SU-DHL-5, 5 h), 1.4e-06 M; in series [3] (Homo sapiens, SU-DHL-5, 72 h, SUDHL5, 72 hours incubation, CellTiter-Glo, median, read-out: Antiproli SUDHL5 [M] (median)), 1.6e-06 M. For the same compound, the EC50 in series [4] (Homo sapiens, SU-DHL10, 3 h, SUDHL10, 3 hours treatment, Caspase-Glo 3/7, median, read-out: Caspase SUDHL10 [M] (median)) came to 3.1e-06 M; in series [5] (Homo sapiens, SU-DHL-5, 3 h, SUDHL5, 3 hours treatment, Caspase-Glo 3/7, median, read-out: Caspase SUDHL5 [M] (median)), 1.1e-06 M.
As to `CCc1c2c(nn1C)COCc1ccccc1Cn1c(C(=O)O)c(CCCOc3cccc4cc(F)ccc34)c3ccc(Cl)c-2c31` (single isomer, unassigned; enantiomer 2) [Example 56, (+)-3-Chloro-4-ethyl-17-{3-[(6-fluoronaphthalen-1-yl)oxy]propyl}-5-methyl-5,7,9,14-tetrahydro-indolo[7,1-fg]pyrazolo[3,4-d][2,8]benzoxazacycloundecine-16-carboxylic Acid N-ethylethanamine Salt (Enantiomer 2)], the IC50 turned out to be 3.7e-06 M in series [1]; 1.6e-06 M in series [2]; 4.2 µM in series [6] (read-out: Antiproli AMO-1; AMO-1, 72 hours incubation, CellTiter-Glo; several values per example); 2.1e-06 M in series [3] (read-out: Antiproli SUDHL5 [M] (median), SUDHL5, 72 hours incubation, CellTiter-Glo). The EC50 in series [4] (read-out: Caspase SUDHL10 [M] (median), SUDHL10, 3 hours treatment, Caspase-Glo 3/7) was found to be 5.4e-06 M; in series [5] (read-out: Caspase SUDHL5 [M] (median), SUDHL5, 3 hours treatment, Caspase-Glo 3/7) it was 1.3e-06 M.
Regarding `Cc1c2c(nn1C)COCc1ccccc1Cn1c(C(=O)O)c(CCCOc3cccc4cc(F)ccc34)c3ccc(Cl)c-2c31` (single isomer, unassigned; enantiomer 2) [Example 50, (+)-3-Chloro-17-{3-[(6-fluoronaphthalen-1-yl)oxy]propyl}-4,5-dimethyl-5,7,9,14-tetrahydroindolo[7,1-fg]pyrazolo[3,4-d][2,8]benzoxazacycloundecine-16-carboxylic acid-N-ethylethanamine Salt (Enantiomer 2)], the IC50 in series [1] turned out to be 2.8e-06 M; in series [2], 9.3e-07 M; in series [6] (AMO-1, 72 hours incubation, CellTiter-Glo; several values per example; read-out: Antiproli AMO-1), 2.82 µM; in series [3] (setting [8]) it was 1.5e-06 M. Moreover, the EC50 in series [4] (setting [9]) was found to be 3.2e-06 M; in series [5] (setting [10]), 7.3e-07 M.
For `Cc1c2c(nn1C)COCc1ccccc1Cn1c(C(=O)O)c(CCCOc3cccc4ccccc34)c3ccc(Cl)c-2c31` (single isomer, unassigned; enantiomer 1) [Example 37, (−)-3-Chloro-4,5-dimethyl-17-[3-(naphthalen-1-yloxy)propyl]-5,7,9,14-tetrahydroindolo[7,1-fg]pyrazolo[3,4-d][2,8]benzoxazacycloundecine-16-carboxylic Acid (Enantiomer 1)], the IC50 is 2.7e-06 M in series [1], 8.6e-07 M in series [2] and > 20 µM in series [7]. Besides, the EC50 in series [4] (setting [9]) is 2.5e-06 M; in series [5] (setting [10]) it was 8.4e-07 M.
Regarding `Cc1c2c(nn1C)COCc1ncccc1Cn1c(C(=O)O)c(CCCOc3cccc4ccccc34)c3cccc-2c31` (single isomer, unassigned; enantiomer 1) [Example 8, 4,5-Dimethyl-17-[3-(naphthalen-1-yloxy)propyl]-5,7,9,14-tetrahydropyrazolo[4′,3′:9,10]-pyrido[2′,3′:3,4][1,6]oxazacycloundecino[8,7,6-hi]indole-16-carboxylic acid-N-ethylethanamine Salt (Enantiomer 1)], the IC50 in series [1] was 7.2e-06 M; in series [2], 3e-06 M; in series [3] (setting [8]), 3.2e-06 M; in series [7], > 20 µM. Moreover, the EC50 in series [4] (setting [9]) turned out to be 9.9e-06 M; in series [5] (setting [10]), 2.5e-06 M.
